A word on the IC50: it is the concentration that gives 50% inhibition. For orientation: viability means a read-out of living cells in per cent, often relative to untreated cells. Read a high viability as better survival. In general, LC50 refers to the concentration that kills 50% of the test population.

SMILES strings stand for the structures. Converted amounts (≈) assume the structure as drawn. Some results are limits rather than exact numbers.

We go through four compounds from publication PMC12736018, “Stereoselective Cytotoxicity of Enantiopure 3,3-Dichloro-γ-lactams: Correlating In Vitro Activity with In Vivo Tolerability” (Molecules, 2025).

One series relates to different cell lines. Details: method as in PMID 38731527. Particulars: across different cell lines, racemic form; cited from earlier work.
Series [1] relates to HeLa cells. The series is described as follows: MTT cell viability assay, HeLa. The series is classed as cell-based. The following applies: Homo sapiens, 24 h. The protocol: (§1) The murine Swiss albino fibroblast (3T3), the immortal human keratinocyte (HaCaT), the squamous cell carcinoma (A431), the human epithelial carcinoma (HeLa) and the human breast adenocarcinoma (MCF-7) cell lines were sourced from Celltec UB (Barcelona, Spain). All cells were maintained and grown in DMEM medium (4.5 g/L glucose) supplemented with 10% (v/v) FBS, 2 mM L-glutamine, 100 U/mL penicillin and 100 μg/mL streptomycin at 37 °C, 5% CO2. Cells were routinely cultured in 75 cm^2 culture flasks and were trypsinized using trypsin-EDTA when the cells reached approximately 80%. Cell concentration in the resulting suspension was assessed using the trypan blue assay, which enables direct discrimination between viable (unstained) and non-viable (blue) cells.
(§2) T3 and HaCaT cells (1 × 10^5 cells/mL), along with A431, HeLa, and MCF-7 cells (5 × 10^4 cells/mL), were cultured at defined seeding densities in the 60 central wells of a 96-well plate. Cells were first incubated for 24 h under standard incubator conditions (5% CO2, 37 °C). After this period, the culture medium was removed, and the cells were incubated for an additional 24 h with their corresponding compound solutions (1 mg/mL) previously diluted in a minimum amount of DMF (dimethylformamide) and then in DMEM medium supplemented with 5% FBS (100 µL) at the required concentration range (20 to 250 µg/mL). Cell viability following exposure to the lactam derivatives was evaluated using two complementary assays: NRU and MTT.
(§3) Only living cells can reduce the yellow tetrazolium salt 3-(4,5-dimethyl-2-thiazolyl)-2,5-diphenyltetrazolium bromide (MTT) to insoluble purple formazan crystals. After a 24 h incubation of the cells with their corresponding NPs, the medium was removed and 100 µL of MTT (Sigma-Aldrich, St. Louis, MO, USA) in PBS (5 mg/mL) diluted 1:10 in culture medium without phenol red and without FBS (Lonza, Verviers, Belgium) was added to the cells. After 3 h of incubation, the medium was removed. Thereafter, 100 µL of DMSO (Sigma-Aldrich, St. Louis, MO, USA) was added to each well to dissolve the purple formazan crystals. Agitation and absorbance measurements of the extracted solution were carried out under the same conditions described for the NRU assay. The effect of each treatment was then expressed as the percentage of tetrazolium salt reduction by viable cells relative to untreated controls.
(§4) The half-maximal inhibitory concentration (IC50) values for the different formulations, across cell lines and experimental endpoints, were obtained by fitting the concentration-dependent viability curves. […] These findings reflect the very low cytotoxicity of the compounds toward these cell lines.

Series [2] has as its system HaCaT cells. The series is described as follows: MTT cell viability assay, HaCaT. The series is classed as cell-based. Particulars: Homo sapiens, 24 h. As to the method:
as §1, §2, §3, §4
On the technique in general: Tetrazolium dyes change colour on reduction, which living cells bring about.

For series [3], the system named is 3T3 cells. The series is described as follows: MTT cell viability assay, 3T3. It is filed as cell-based. The following applies: Mus musculus, NIH3T3; 3T3, MTT, 24 h. As to the method: as §1, §2, §3, §4
The subject of series [4] is MCF-7 cells. The series is described as follows: MTT cell viability assay, MCF-7. It is filed as cell-based. The following applies: Homo sapiens, MCF7; MCF-7, MTT, 24 h. As to the method: as §1, §2, §3, §4
The subject of series [5] is MCF-7 cells. Description: NRU cell viability assay, MCF-7. Particulars: Homo sapiens, MCF7; MCF-7, NRU, 24 h. The series is classed as cell-based, human. The protocol:
as §1, §2
(§5) The neutral red uptake (NRU) assay is based on the accumulation of dye in the lysosomes of viable cells. After the cells were incubated for 24 h with the corresponding systems, the medium was removed, and the solutions were incubated with the NR dye (Sigma-Aldrich, St. Louis, MO, USA) solution (50 µg/mL) dissolved in the medium, without FBS and without phenol red (Lonza, Verviers, Belgium), for 3 h. Cells were then washed with sterile PBS, followed by the addition of 100 µL of a solution containing 50% absolute ethanol and 1% acetic acid in distilled water to extract the dye. To promote the total dissolution of the dye, plates were placed in a microtiter-plate shaker for 5 min at room temperature. The absorbance of the resulting solutions was measured at 550 nm (Bio-Rad 550 microplate reader, Bio-Rad California, Hercules, CA, USA). Finally, the effect of each treatment was calculated as the percentage of dye uptake by viable cells relative to the control cells (cells without any treatment). Finally, the effect of each treatment was calculated as the percentage of dye retained by viable cells compared with untreated control cells.
as §4

Series [6] deals with HaCaT cells. The series is described as follows: NRU cell viability assay, HaCaT. It is filed as cell-based. Particulars: Homo sapiens, 24 h. As to the method:
as §1, §2
as §5, with “[…]” for “control cells.”

In series [7] the test system is A431 cells. The series is described as follows: NRU cell viability assay, A431. The series is classed as cell-based, human. Particulars: Homo sapiens, A-431, 24 h. The protocol:
as §1, §2, §5, §4

Series [8] relates to HeLa cells. Description: NRU cell viability assay, HeLa. It is filed as cell-based, human. The following applies: Homo sapiens, 24 h. As to the method:
as §1, §2, §5, §4

The test system of series [9] is 3T3, HaCaT, A431, HeLa and MCF-7 cells. The series is described as follows: Cell viability assays (MTT and NRU), summary across the cell panel. The series is classed as cell-based. The following applies: for IC50: MTT and NRU, summary statement over cell lines. As to the method:
as §1, §2
as §5, with “Cells were then washed with sterile PBS, followed by the addition of 100 µL of a solution containing 50% absolute ethanol and 1% acetic acid in distilled water to extract the dye. To promote the total dissolution of the dye, plates were placed in a microtiter-plate shaker for 5 min at room temperature.” left out
(§6) Only living cells can reduce the yellow tetrazolium salt 3-(4,5-dimethyl-2-thiazolyl)-2,5-diphenyltetrazolium bromide (MTT) to insoluble purple formazan crystals. […] Agitation and absorbance measurements of the extracted solution were carried out under the same conditions described for the NRU assay. The effect of each treatment was then expressed as the percentage of tetrazolium salt reduction by viable cells relative to untreated controls. […]

Assay in series [10]: as above
It is filed as cell-based. The following applies: MTT, most cell lines, highest tested concentration. As to the method:
as §1, §2
as §5, with “Cells were then washed with sterile PBS, followed by the addition of 100 µL of a solution containing 50% absolute ethanol and 1% acetic acid in distilled water to extract the dye. To promote the total dissolution of the dye, plates were placed in a microtiter-plate shaker for 5 min at room temperature.” left out
as §6

In series [11] the test system is A431 cells. The series is described as follows: MTT cell viability assay, A431. The series is classed as cell-based. Particulars: Homo sapiens, A-431, 24 h. As to the method:
as §1, §2, §3, §4

Series [12] concerns 3T3 cells. The series is described as follows: NRU cell viability assay, 3T3. The series is classed as cell-based. The following applies: Mus musculus, NIH3T3; 3T3, NRU, 24 h. As to the method:
as §1, §2
as §5, with “[…]” for “control cells.”

The nature of a further series: Hemolysis assay. The series is classed as cell-based. Particulars: human, human erythrocyte suspension, pH 7.4, 10 and 80 µg/mL. The protocol: Human blood samples were obtained from the Banc de Sang i Teixits de Barcelona (Barcelona, Spain) under the Catalan Department of Health. Blood was collected in tubes containing the anticoagulant EDTA-K3. Samples were centrifuged at 3000 rpm and 4 °C for 10 min (Megafuge 2.0 R, Heraeus Instruments, Hanau, Germany) to promote sedimentation, after which plasma was carefully eliminated using a Pasteur pipette. The remaining pellet was washed with PBS (pH 7.4) three times to remove residual leukocytes and platelets while concentrating erythrocytes. After the final wash, the erythrocyte pellet was resuspended in PBS (pH 7.4) at a 1:1 ratio to achieve a final erythrocyte concentration of 8 × 10^9 cells/mL.
The hemolysis assay is used to evaluate the ability of the tested compounds to disrupt erythrocyte membranes. Stock solutions of each compound were prepared in PBS (pH 7.4) at a concentration of 1 mg/mL. Volumes ranging from 10 to 80 μL were transferred into polystyrene tubes, followed by the addition of 25 µL of the erythrocyte suspension, bringing the total volume to 1 mL. The samples were incubated at room temperature under gentle rotation and subsequently centrifuged at 10,000 rpm for 5 min. The absorbance of the resulting supernatants at 540 nm (Shimadzu UV-160A, Shimadzu, Duisburg, Germany) was measured and compared with that of the positive control (erythrocytes hemolyzed with distilled water) and the negative control (erythrocytes suspension in PBS, pH 7.4).
The degree of hemolysis was determined using the following equation:Hemolysis (%) = 100 × (Abs − Abs0)/(Abs100 − Abs0) where Abs, Abs0 and Abs100 are the absorbance of the test samples, of the suspension treated with isotonic phosphate–buffered saline (PBS) and of the suspension of complete hemolysis treated with distilled water, respectively.

Another series relates to 3T3 fibroblasts. Details: method as in PMID 40283925. Particulars: normal 3T3 fibroblasts, racemic form; cited from earlier work.
The subject of another series is A431 tumor cells. Details: method as in PMID 40283925. Particulars: racemic form; cited from earlier work.
The next series relates to zebrafish. Details: method as in PMID 40283925. Particulars: tested previously in zebrafish; cited from earlier work.

As for `CC(C)(C)N1CC(CCl)C(Cl)(Cl)C1=O` (stereo not drawn) [compound 2], the concentration for half-maximal inhibition (IC50) with different cell lines is 100 to 250 µg/mL.

With `C[C@@H](c1ccccc1)N1C[C@H](C)C(Cl)(Cl)C1=O` [epi-3], the IC50 is above 250 µg/mL in the series with HeLa cells [1]; above 250 µg/mL in the series on HaCaT cells [2]; 68.1 µg/mL (≈ 250 µM) in the series with 3T3 cells [3]; above 250 µg/mL with MCF-7 cells [4]; above 250 µg/mL in the series with MCF-7 cells [5]; above 250 µg/mL in the series with HaCaT cells [6]. The IC50 in the series on A431 cells [7] is 123 µg/mL (≈ 452 µM); with HeLa cells [8], 214 µg/mL (≈ 786 µM); in series [9], above 68 µg/mL; in the series on A431 cells [11], 170 µg/mL (≈ 624 µM); in the series on 3T3 cells [12], 77.2 µg/mL (≈ 284 µM). The cell survival result in series [9] (NRU, several lines, 250 µg/mL) was “around 60%”. The same compound registered a viability at 24 h, 250 µg/mL in [10] of at least 80%. Further, in the series “Hemolysis assay”, the hemolysis is below 2%.

Consider `C[C@H](c1ccccc1)N1C[C@@H](C)C(Cl)(Cl)C1=O` [epi-4], for which the IC50 is above 250 µg/mL in the series on HeLa cells [1]; above 250 µg/mL with HaCaT cells [2]; 145 µg/mL (≈ 534 µM) with 3T3 cells [3]; above 250 µg/mL with MCF-7 cells [4]; above 250 µg/mL in the series with MCF-7 cells [5]; above 250 µg/mL in the series with HaCaT cells [6]. The IC50 was 61.7 µg/mL (≈ 227 µM) with A431 cells [7]; above 250 µg/mL in the series on HeLa cells [8]; above 100 µg/mL in series [9]; 177 µg/mL (≈ 651 µM) in the series on A431 cells [11]; 153 µg/mL (≈ 563 µM) with 3T3 cells [12]. The hemolysis in the series “Hemolysis assay” is below 2%.

As for `CC(C)(C)N1C(=O)C(Cl)(Cl)C1c1ccccc1` (stereo not drawn) [β-lactam 1], the IC50 is above 210 µg/mL with 3T3 fibroblasts and 35 to 71 µg/mL with A431 tumor cells. The 50% lethal concentration (LC50) with zebrafish is on record as 14.9 µg/mL (≈ 54.7 µM).
